Holding throughout (type): cell-based
Experiment [1] has as its target Met (Homo sapiens (Human), UniProt P08581). As to the kind of experiment: Met autophosphorylation ELISA in PC-3 cells. The following applies: cellular, HGF-stimulated, phospho-Met ELISA, read-out: c-Met IC50. In outline: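 Serum-starved PC-3 cells treated 1 h with compound (8-point series, 0.3% DMSO), then stimulated 10 min with 100 ng/mL HGF. Phospho-Met (panTyr) quantified in lysates by sandwich ELISA; IC50 from 4-parameter logistic fit against DMSO and reference-inhibitor controls.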
A general note: In an ELISA, binding on a coated surface is turned into a signal by an enzyme label.

The target in experiment [2] is KDR (Homo sapiens (Human), UniProt P35968). The experiment is described as follows: KDR autophosphorylation ELISA in HUVEC cells. The following applies: cellular, VEGF165-stimulated, phospho-KDR ELISA. In outline: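 Serum-starved (24 h) HUVECs were pre-treated with compound (8-point dose curve, 0.3% DMSO final) for 1 h, then stimulated with 100 ng/mL human VEGF165 for 5 min. Lysate phospho-KDR was quantified by ELISA against a phospho-KDR standard. IC50 came from a 4-parameter logistic fit, normalized to stimulated-DMSO (100%) and unstimulated (0%) controls.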
Sequence of KDR (P35968 20-1356): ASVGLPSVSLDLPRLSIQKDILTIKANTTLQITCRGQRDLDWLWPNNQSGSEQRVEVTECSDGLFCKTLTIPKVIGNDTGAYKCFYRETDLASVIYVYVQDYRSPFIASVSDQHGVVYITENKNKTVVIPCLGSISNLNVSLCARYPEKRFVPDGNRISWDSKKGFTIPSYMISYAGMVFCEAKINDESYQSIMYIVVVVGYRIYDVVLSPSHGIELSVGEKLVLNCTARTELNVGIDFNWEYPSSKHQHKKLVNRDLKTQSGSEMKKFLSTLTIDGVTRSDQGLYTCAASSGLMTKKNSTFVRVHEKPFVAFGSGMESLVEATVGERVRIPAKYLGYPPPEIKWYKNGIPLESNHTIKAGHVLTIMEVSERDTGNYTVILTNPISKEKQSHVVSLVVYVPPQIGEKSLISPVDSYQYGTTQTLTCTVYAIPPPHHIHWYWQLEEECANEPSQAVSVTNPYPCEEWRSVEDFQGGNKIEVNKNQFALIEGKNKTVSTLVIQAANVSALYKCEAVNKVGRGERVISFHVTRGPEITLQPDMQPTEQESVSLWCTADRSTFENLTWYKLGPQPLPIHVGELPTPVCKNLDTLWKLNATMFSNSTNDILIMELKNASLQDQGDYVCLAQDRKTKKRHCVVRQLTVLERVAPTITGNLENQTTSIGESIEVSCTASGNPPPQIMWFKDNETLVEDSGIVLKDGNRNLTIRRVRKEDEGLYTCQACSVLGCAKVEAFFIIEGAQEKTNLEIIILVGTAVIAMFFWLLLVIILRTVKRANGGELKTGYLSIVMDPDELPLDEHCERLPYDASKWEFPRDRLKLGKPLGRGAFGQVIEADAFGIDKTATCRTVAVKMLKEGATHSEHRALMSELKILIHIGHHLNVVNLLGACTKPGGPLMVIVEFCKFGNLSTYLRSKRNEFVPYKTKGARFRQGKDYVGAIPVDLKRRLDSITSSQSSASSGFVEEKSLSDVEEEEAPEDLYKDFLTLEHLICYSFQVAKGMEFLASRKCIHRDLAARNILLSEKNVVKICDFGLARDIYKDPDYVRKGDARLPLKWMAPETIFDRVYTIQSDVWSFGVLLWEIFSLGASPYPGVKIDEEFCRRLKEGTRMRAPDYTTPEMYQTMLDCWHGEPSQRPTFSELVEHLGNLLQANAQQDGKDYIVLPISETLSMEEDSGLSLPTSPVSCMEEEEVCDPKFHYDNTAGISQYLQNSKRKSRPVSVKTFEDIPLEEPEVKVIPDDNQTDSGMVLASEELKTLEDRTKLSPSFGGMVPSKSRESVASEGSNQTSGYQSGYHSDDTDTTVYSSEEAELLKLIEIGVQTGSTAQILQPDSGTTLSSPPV

For experiment [3], the target named is Mer (Homo sapiens (Human), UniProt Q12866). As to the kind of experiment: Mer autophosphorylation ELISA in transient transfected 293A cells. The following applies: cellular, MERTK-transfected 293A cells, phospho-Mer ELISA. As to the method:
293A cells (Thermo Fisher #R70507) were seeded at 1.5×10^6 cells/well onto 100 mm dish (Greiner #664169), in DMEM (Thermo Fisher #11995-040) containing 10% FBS (Thermo Fisher #26140-079), 1% MEM NEAA (Thermo Fisher #11140-050), 1% GlutaMax (Thermo Fisher #35050-061), and 1% Penicillin Streptomycin (Thermo Fisher #15140-122). 293A cells were incubated at 37° C., 5% CO2 for 24 h and then transfected with 6 μg MERTK DNA (Genecopoeia #EX-Z8208-M02) using TransIT LT1 transfection reagent (Mirus-Bio #MIR2305). After 24 h incubation, the transfected 293A cells were seeded at 1×10^5 cells/well onto 96-well plates (Corning #3904) in DMEM growth medium overnight. Test compounds were serially diluted to produce an 8-point dose curve in fresh serum-free medium to a final concentration of 0.3% DMSO (vehicle) and added to the cells and incubated for 1 h. Cells were then immediately lysed with 150 μL of cold IX lysis buffer [20 mM Tris, 137 mM sodium chloride, 2 mM EDTA, 10% glycerol, 1% NP-40 alternative, 1 mM activated sodium orthovanadate, 1 mM PefaBloc SC (Sigma-Aldrich #11429868001), protease/phosphatase inhibitor tablet (Thermo Fisher #A32959)]. Lysates were clarified by centrifugation and 50 μL/well added into the human phospho-Mer DuoSet IC ELISA (R&D Systems #DYC2579-2). Assay was performed according to manufacturer's instructions and sample phospho-Mer concentrations were extrapolated using human phospho-Mer control (R&D Systems #841793) as a standard. Positive control wells (100% activity) contained DMSO-treated cell lysates. Negative control wells (0% activity) contained reference inhibitor-treated cell lysates. IC50 values were calculated by nonlinear regression analysis using a 4-parameter logistic curve fit in ActivityBase XE (IDBS).

Experiment [4] deals with AXL (Homo sapiens (Human), UniProt P30530). The experiment is described as follows: AXL autophosphorylation ELISA in A-172 cells. The following applies: cellular, Gas6-stimulated, phospho-AXL ELISA. In outline:
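A-172 glioblastoma cells, serum-starved 24 h, got 8-point compound dilutions (0.3% DMSO) for 1 h, then 1 μg/mL human Gas6 for 15 min. Phospho-AXL in lysates was quantified by ELISA against a standard, normalized between DMSO and reference-inhibitor controls; IC50 by 4-parameter logistic fit.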

Sequence of Mer (Q12866 21-999): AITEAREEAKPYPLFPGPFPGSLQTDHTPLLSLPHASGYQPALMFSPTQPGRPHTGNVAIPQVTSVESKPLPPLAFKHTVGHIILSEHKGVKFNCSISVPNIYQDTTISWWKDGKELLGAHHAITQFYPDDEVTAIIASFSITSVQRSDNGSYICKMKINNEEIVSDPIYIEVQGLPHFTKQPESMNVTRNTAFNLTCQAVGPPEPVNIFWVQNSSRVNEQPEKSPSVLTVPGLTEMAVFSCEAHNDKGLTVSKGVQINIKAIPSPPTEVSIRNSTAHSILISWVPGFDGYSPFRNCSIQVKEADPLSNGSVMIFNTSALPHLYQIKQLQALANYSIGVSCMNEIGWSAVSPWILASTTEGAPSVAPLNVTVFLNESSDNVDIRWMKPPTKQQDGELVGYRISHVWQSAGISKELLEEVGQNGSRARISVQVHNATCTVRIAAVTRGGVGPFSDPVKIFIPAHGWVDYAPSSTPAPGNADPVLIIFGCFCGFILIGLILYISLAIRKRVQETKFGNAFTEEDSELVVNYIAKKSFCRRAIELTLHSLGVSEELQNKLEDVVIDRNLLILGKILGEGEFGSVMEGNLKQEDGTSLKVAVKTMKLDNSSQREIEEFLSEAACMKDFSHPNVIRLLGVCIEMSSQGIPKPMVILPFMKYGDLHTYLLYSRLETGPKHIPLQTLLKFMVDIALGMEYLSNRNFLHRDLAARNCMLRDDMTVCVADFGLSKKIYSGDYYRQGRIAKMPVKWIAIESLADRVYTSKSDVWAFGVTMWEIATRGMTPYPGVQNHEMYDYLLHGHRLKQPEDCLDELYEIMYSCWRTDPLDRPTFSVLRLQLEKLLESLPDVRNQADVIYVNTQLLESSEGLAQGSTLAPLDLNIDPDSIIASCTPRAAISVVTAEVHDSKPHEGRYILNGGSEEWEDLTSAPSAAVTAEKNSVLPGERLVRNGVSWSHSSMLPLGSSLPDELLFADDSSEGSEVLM
Sequence of Met (P08581 25-1390): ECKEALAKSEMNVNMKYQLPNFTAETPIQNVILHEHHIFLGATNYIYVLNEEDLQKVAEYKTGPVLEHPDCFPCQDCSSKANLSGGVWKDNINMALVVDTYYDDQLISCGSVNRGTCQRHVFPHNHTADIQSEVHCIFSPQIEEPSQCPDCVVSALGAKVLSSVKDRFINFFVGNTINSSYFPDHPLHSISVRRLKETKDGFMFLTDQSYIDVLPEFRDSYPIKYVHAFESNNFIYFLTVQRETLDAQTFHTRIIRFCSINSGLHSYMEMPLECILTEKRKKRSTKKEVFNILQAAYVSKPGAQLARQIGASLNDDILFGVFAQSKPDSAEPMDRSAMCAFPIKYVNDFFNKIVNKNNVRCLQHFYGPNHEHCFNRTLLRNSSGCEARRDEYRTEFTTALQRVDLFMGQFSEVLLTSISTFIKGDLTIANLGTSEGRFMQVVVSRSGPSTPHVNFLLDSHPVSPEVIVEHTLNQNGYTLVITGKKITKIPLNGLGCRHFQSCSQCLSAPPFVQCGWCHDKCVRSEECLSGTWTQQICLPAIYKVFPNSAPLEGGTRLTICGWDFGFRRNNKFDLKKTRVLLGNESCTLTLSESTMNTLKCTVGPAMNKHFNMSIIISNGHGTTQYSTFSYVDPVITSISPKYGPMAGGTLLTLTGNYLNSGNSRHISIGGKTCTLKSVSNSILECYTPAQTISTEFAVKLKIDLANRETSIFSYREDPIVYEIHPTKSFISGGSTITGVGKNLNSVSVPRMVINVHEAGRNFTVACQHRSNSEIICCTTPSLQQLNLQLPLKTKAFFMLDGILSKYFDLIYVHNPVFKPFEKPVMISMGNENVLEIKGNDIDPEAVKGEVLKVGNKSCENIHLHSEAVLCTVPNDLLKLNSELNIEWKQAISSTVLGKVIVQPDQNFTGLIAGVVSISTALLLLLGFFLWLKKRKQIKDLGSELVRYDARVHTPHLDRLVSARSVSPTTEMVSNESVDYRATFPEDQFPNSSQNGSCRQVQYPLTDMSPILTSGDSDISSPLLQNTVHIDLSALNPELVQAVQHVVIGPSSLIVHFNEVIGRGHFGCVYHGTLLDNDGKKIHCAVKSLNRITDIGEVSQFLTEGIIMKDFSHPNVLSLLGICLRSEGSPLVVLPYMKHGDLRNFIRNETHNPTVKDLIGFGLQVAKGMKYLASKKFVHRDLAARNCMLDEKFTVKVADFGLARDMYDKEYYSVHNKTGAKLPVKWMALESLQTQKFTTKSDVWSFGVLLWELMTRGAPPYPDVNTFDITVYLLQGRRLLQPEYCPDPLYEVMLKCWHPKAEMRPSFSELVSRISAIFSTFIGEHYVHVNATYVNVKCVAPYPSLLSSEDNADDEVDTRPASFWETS
Sequence of AXL (P30530 26-894): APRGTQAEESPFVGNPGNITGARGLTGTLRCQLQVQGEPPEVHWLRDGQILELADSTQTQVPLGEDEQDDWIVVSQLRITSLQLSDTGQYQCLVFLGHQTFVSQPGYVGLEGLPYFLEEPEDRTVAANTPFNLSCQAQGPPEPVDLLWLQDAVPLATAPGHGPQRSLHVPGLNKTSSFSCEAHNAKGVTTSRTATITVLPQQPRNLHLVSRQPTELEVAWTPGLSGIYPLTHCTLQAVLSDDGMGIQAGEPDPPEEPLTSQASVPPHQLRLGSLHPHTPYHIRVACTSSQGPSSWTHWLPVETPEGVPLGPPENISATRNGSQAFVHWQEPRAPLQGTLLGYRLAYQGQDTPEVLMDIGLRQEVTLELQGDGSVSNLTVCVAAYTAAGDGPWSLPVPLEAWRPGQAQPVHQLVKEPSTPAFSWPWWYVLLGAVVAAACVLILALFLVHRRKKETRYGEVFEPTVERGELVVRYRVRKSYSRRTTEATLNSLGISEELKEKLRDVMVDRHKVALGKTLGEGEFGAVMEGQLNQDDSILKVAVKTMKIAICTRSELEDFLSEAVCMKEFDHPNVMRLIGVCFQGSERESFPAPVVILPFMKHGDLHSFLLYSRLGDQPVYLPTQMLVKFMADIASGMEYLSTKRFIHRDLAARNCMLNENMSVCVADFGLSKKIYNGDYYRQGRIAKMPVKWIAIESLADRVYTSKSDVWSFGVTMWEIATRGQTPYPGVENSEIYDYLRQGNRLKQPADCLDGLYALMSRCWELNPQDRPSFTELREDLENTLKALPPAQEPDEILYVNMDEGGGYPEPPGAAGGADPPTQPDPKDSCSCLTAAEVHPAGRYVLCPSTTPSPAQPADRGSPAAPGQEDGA

Broadly, the IC50 is the concentration at which inhibition is half-maximal. Turning to `COc1nc2c(Oc3ccc(NC(=O)C4(C(=O)Nc5ccc(F)cc5)CC4)cc3C)ncnc2cc1OCCCN1CCOCC1` [Compound 68, 1-N-(4-fluorophenyl)-1-N′-[4-[6-methoxy-7-(3-morpholin-4-ylpropoxy)pyrido[3,2-d]pyrimidin-4-yl]oxy-3-methylphenyl]cyclopropane-1,1-dicarboxamide], the IC50 in experiment [1] was 0.1 to 0.3 µM; in experiment [2], 0.01 to 0.1 µM; in experiment [3], 0.01 to 0.1 µM; in experiment [4] it was 0.01 to 0.1 µM.
As for `COc1nc2c(Oc3ccc(NC(=O)C4(C(=O)Nc5ccc(F)cc5)CC4)c(F)c3)ncnc2cc1OCCCN1CCOCC1` [Compound 69, 1-N′-[2-fluoro-4-[6-methoxy-7-(3-morpholin-4-ylpropoxy)pyrido[3,2-d]pyrimidin-4-yl]oxyphenyl]-1-N-(4-fluorophenyl)cyclo-propane-1,1-dicarboxamide], the IC50 was 0.01 to 0.1 µM in experiment [1], 0.01 to 0.1 µM in experiment [2], not above 0.01 µM in experiment [3] and not above 0.01 µM in experiment [4].
As for `COc1nc2c(Oc3ccc(NC(=O)C4(C(=O)Nc5ccc(F)cc5)CC4)c(Cl)c3)ncnc2cc1OCCCN1CCOCC1` [Compound 70, 1-N′-[2-chloro-4-[6-methoxy-7-(3-morpholin-4-ylpropoxy)pyrido[3,2-d]pyrimidin-4-yl]oxyphenyl]-1-N-(4-fluorophenyl)cyclo-propane-1,1-dicarboxamide], the IC50 fell in the range of 0.1 to 0.3 µM in experiment [1], 0.1 to 0.3 µM in experiment [2], 0.01 to 0.1 µM in experiment [3] and 0.01 to 0.1 µM in experiment [4].
As to `COc1nc2c(Oc3ccc(NC(=O)C4(C(=O)Nc5ccc(F)cc5)CC4)c(C)c3)ncnc2cc1OCCCN1CCOCC1` [Compound 71, 1-N-(4-fluorophenyl)-1-N′-[4-[6-methoxy-7-(3-morpholin-4-ylpropoxy)pyrido[3,2-d]pyrimidin-4-yl]oxy-2-methylphenyl]cyclopropane-1,1-dicarboxamide], the IC50 in experiment [1] was 0.1 to 0.3 µM; in experiment [2], 0.01 to 0.1 µM; in experiment [3], more than 0.3 µM; in experiment [4] it was 0.01 to 0.1 µM.
For the compound `COc1nc2c(Oc3cc(F)c(NC(=O)C4(C(=O)Nc5ccc(F)cc5)CC4)cc3F)ncnc2cc1OCCCN1CCOCC1` [Compound 72, 1-N′-[2,5-difluoro-4-[6-methoxy-7-(3-morpholin-4-ylpropoxy)pyrido[3,2-d]pyrimidin-4-yl]oxyphenyl]-1-N-(4-fluorophenyl)cyclo-propane-1,1-dicarboxamide], the IC50 is 0.01 to 0.1 µM in experiment [1], 0.01 to 0.1 µM in experiment [2], 0.01 to 0.1 µM in experiment [3] and not above 0.01 µM in experiment [4].
For the compound `COc1nc2c(Oc3ccc(NC(=O)C4(C(=O)Nc5ccc(F)cc5)CC4)c(F)c3F)ncnc2cc1OCCCN1CCOCC1` [Compound 73, 1-N′-[2,3-difluoro-4-[6-methoxy-7-(3-morpholin-4-ylpropoxy)pyrido[3,2-d]pyrimidin-4-yl]oxyphenyl]-1-N-(4-fluoro-phenyl)cyclopropane-1,1-dicarboxamide], the IC50 is 0.01 to 0.1 µM in experiment [1], not above 0.01 µM in experiment [2], not above 0.01 µM in experiment [3] and not above 0.01 µM in experiment [4].
For the compound `COc1nc2c(Oc3ccc(NC(=O)C4(C(=O)Nc5ccc(F)cc5)CC4)cc3C#N)ncnc2cc1OCCCN1CCOCC1` [Compound 75, 1-N′-[3-cyano-4-[6-methoxy-7-(3-morpholin-4-ylpropoxy)pyrido[3,2-d]pyrimidin-4-yl]oxyphenyl]-1-N-(4-fluorophenyl)cyclo-propane-1,1-dicarboxamide], the IC50 in experiment [1], in experiment [2], in experiment [3] and in experiment [4] was 0.01 to 0.1 µM each time.
For the compound `COc1nc2c(Oc3c(F)cc(NC(=O)C4(C(=O)Nc5ccc(F)cc5)CC4)cc3F)ncnc2cc1OCCCN1CCOCC1` [Compound 76, 1-N′-[3,5-difluoro-4-[6-methoxy-7-(3-morpholin-4-ylpropoxy)pyrido[3,2-d]pyrimidin-4-yl]oxyphenyl]-1-N-(4-fluorophenyl)cyclo-propane-1,1-dicarboxamide], the IC50 in experiment [1] is 0.01 to 0.1 µM; in experiment [2], 0.01 to 0.1 µM; in experiment [3], not above 0.01 µM; in experiment [4], not above 0.01 µM.
